Format in all cases: functional
One test has as its system Escherichia coli. The test can be described thus: In vitro antibacterial activity against Escherichia coli ML4707.
For test [1], the system named is Pseudomonas aeruginosa. The test can be described thus: In vitro antibacterial activity against Pseudomonas aeruginosa E-2.
In test [2] the test system is Pseudomonas aeruginosa. The test can be described thus: In vitro antibacterial activity against Pseudomonas aeruginosa IFO12689.
The test system of a further test is Staphylococcus aureus. Put plainly: In vitro antibacterial activity against Staphylococcus aureus Smith.
Test [3] deals with Mus musculus. The test can be described thus: Tested in vivo for the therapeutic efficacy against systemic infection caused by Pseudomonas aeruginosa E-2 in mice at a challenge dose of 8*10e4 (cfu/mouse) + 5%mucin.
Test [4] concerns Mus musculus. Put plainly: Tested in vivo for the therapeutic efficacy against systemic infection caused by Staphylococcus aureus Smith in mice at a challenge dose of 5*10e6 (cfu/mouse) + 5%mucin.
In test [5] the test system is Mus musculus. The test can be described thus: Tested in vivo for the therapeutic efficacy against systemic infection caused by Staphylococcus aureus Smith in mice at a challenge dose of 3.3*10e6 (cfu/mouse) + 5%mucin.
The species entered for test [6] is Mus musculus. The test can be described thus: Tested for the therapeutic efficacy against systemic infection caused by Pseudomonas aeruginosa E-2 in mice at a challenge dose of 7.9*10e4 (cfu/mouse) + 5%mucin.
Test [7] relates to Pseudomonas aeruginosa. The test can be described thus: In vitro for the antibacterial activity against Pseudomonas aeruginosa E-2.

In brackets after ≈: the same amount, converted by molar mass.

The MIC is the smallest concentration in the dilution series that meets the test's criterion for growth inhibition. Read a high MIC as a need for much substance. In the case of `Nc1nc(/C(=N/OCCSc2nnc(-c3cc(O)c(O)cn3)o2)C(=O)N[C@@H]2C(=O)N3C(C(=O)[O-])=C(C[n+]4ccc(C(=O)[O-])cc4)CS[C@H]23)cs1.[Na+]`, the MIC in the test with Escherichia coli came out at 0.0125 mg/L; in the test on Pseudomonas aeruginosa [1], 3.13 mg/L; in the test on Pseudomonas aeruginosa [2], 0.39 mg/L; in the test with Staphylococcus aureus, 25 mg/L.
By ED50 is commonly meant the dose that gives a 50% effect, or the effect in half of the subjects. Take `Nc1nc(/C(=N/OCCSc2nnc(-c3cc(O)c(O)cn3)o2)C(=O)N[C@@H]2C(=O)N3C(C(=O)[O-])=C(CSc4cc[n+](CC(=O)[O-])cc4)CS[C@H]23)cs1.[Na+]`: the MIC against Escherichia coli was ≤ 0.0063 mg/L; in the test on Pseudomonas aeruginosa [1] it was 1.56 mg/L; against Pseudomonas aeruginosa [2], 0.39 mg/L; with Staphylococcus aureus, 12.5 mg/L. Further, the ED50 with Mus musculus [3] is 25 mg/kg.
Consider `Nc1nc(/C(=N/OCCSc2nnc(-c3cc(O)c(O)cn3)o2)C(=O)[N-][C@@H]2C(=O)N3C(C(=O)[O-])=C(C[n+]4ccccc4)CS[C@H]23)cs1.[Na+]`, for which the minimum inhibitory concentration (MIC) with Escherichia coli came out at 0.025 mg/L; in the test on Pseudomonas aeruginosa [1], 3.13 mg/L; against Pseudomonas aeruginosa [2], 0.78 mg/L; against Staphylococcus aureus it was 3.13 mg/L.
Regarding `CC[n+]1ccc(SCC2=C(C(=O)[O-])N3C(=O)[C@@H]([N-]C(=O)/C(=N\OCCSc4nnc(-c5cc(O)c(O)cn5)o4)c4csc(N)n4)[C@H]3SC2)cc1.[Na+]`, the minimal inhibitory concentration (MIC) was ≤ 0.0063 mg/L in the test with Escherichia coli, 0.39 mg/L in the test with Pseudomonas aeruginosa [1], 0.78 mg/L in the test with Pseudomonas aeruginosa [2] and 3.13 mg/L against Staphylococcus aureus. Moreover, the results for the ED50 in the test on Mus musculus [3] and in the test on Mus musculus [4] were 19 mg/kg and < 0.6 mg/kg, respectively.
On to `CN(C)CC[n+]1ccc(SCC2=C(C(=O)[O-])N3C(=O)[C@@H]([N-]C(=O)/C(=N\OCCSc4nnc(-c5cc(O)c(O)cn5)o4)c4csc(N)n4)[C@H]3SC2)cc1.[Na+]`, for which the MIC against Escherichia coli turned out to be 0.025 mg/L; against Pseudomonas aeruginosa [1], 0.78 mg/L; against Pseudomonas aeruginosa [2], 3.13 mg/L; in the test on Staphylococcus aureus, 6.25 mg/L.
As for `Nc1nc(/C(=N/OCc2cc(O)c(O)cn2)C(=O)[N-][C@@H]2C(=O)N3C(C(=O)[O-])=C(CSc4cc[n+](CCO)cc4)CS[C@H]23)cs1.[Na+]`, the ED50 is 0.86 mg/kg with Mus musculus [5] and > 40 mg/kg in the test filed under Mus musculus [6]. In addition, the MIC with Pseudomonas aeruginosa [7] was 6.25 mg/L; with Staphylococcus aureus, 3.13 mg/L.
For `Nc1nc(/C(=N/OCCSc2nnc(-c3ccccn3)o2)C(=O)[N-][C@@H]2C(=O)N3C(C(=O)[O-])=C(CSc4cc[n+](CCO)cc4)CS[C@H]23)cs1.[Na+]` the same measures were 0.43 mg/kg, > 40 mg/kg, 100 mg/L and 0.39 mg/L.
On to `NC(=O)c1cc[n+](CC2=C(C(=O)[O-])N3C(=O)[C@@H]([N-]C(=O)/C(=N\OCCSc4nnc(-c5cc(O)c(O)cn5)o4)c4csc(N)n4)[C@H]3SC2)cc1.[Na+]`, for which the minimal inhibitory concentration (MIC) against Escherichia coli stood at 0.025 mg/L; with Pseudomonas aeruginosa [1] it was 3.13 mg/L; with Pseudomonas aeruginosa [2] it was 1.56 mg/L; in the test on Staphylococcus aureus it was 6.25 mg/L.
Take `Nc1nc(/C(=N/OCCSc2nnc(-c3ccc(O)c(O)c3)o2)C(=O)[N-][C@@H]2C(=O)N3C(C(=O)[O-])=C(CSc4cc[n+](CCO)cc4)CS[C@H]23)cs1.[Na+]`: the ED50 in the test with Mus musculus [5] was found to be 0.86 mg/kg; in the test listed under Mus musculus [6], 34 mg/kg. The MIC against Pseudomonas aeruginosa [7] and with Staphylococcus aureus was 0.39 mg/L throughout.
Consider `Nc1nc(/C(=N/OCCSc2nnc(-c3cc(O)c(O)cn3)o2)C(=O)[N-][C@@H]2C(=O)N3C(C(=O)[O-])=C(CSc4cc[n+](CCO)cc4)CS[C@H]23)cs1.[Na+]`, for which the MIC in the test with Escherichia coli is ≤ 0.0063 mg/L; against Pseudomonas aeruginosa [1], 0.39 mg/L; with Pseudomonas aeruginosa [2], 0.78 mg/L; against Staphylococcus aureus, 3.13 mg/L. The 50% effective dose (ED50) is 4.2 mg/kg with Mus musculus [3], 0.86 mg/kg in the test on Mus musculus [5], < 0.3 mg/kg in the test on Mus musculus [4] and 7.2 mg/kg in the test filed under Mus musculus [6].
With `Nc1nc(/C(=N/OCCSc2nnc(-c3cc(O)c(O)cn3)o2)C(=O)[N-][C@@H]2C(=O)N3C(C(=O)[O-])=C(C[n+]4ccc(SCCO)cc4)CS[C@H]23)cs1.[Na+]`, the MIC against Escherichia coli turned out to be 0.0125 mg/L; against Pseudomonas aeruginosa [1] it was 0.78 mg/L; against Pseudomonas aeruginosa [2] it was 0.78 mg/L; against Staphylococcus aureus it was 3.13 mg/L.
`Nc1nc(/C(=N/OCCSc2nnc(-c3cc(O)c(O)cn3)o2)C(=O)N[C@@H]2C(=O)N3C(C(=O)[O-])=C(CSc4nc5ccccc5s4)CS[C@H]23)cs1.[Na+]`: the minimal inhibitory concentration (MIC) was 0.0125 mg/L against Escherichia coli, 0.78 mg/L in the test with Pseudomonas aeruginosa [1], 0.78 mg/L against Pseudomonas aeruginosa [2] and 3.13 mg/L with Staphylococcus aureus. For the same molecule, the ED50 in the test on Mus musculus [3] is > 100 mg/kg.
As to `Cc1cc(SCC2=C(C(=O)[O-])N3C(=O)[C@@H](NC(=O)/C(=N\OCCSc4nnc(-c5cc(O)c(O)cn5)o4)c4csc(N)n4)[C@H]3SC2)n2nc(CO)nc2n1.[Na+]`, the minimal inhibitory concentration (MIC) is < 0.0063 mg/L against Escherichia coli, 0.2 mg/L in the test on Pseudomonas aeruginosa [1], 0.39 mg/L in the test with Pseudomonas aeruginosa [2] and 6.25 mg/L against Staphylococcus aureus.
Turning to `Nc1nc(/C(=N/OCCSc2nnc(-c3cc(O)c(O)cn3)o2)C(=O)N[C@@H]2C(=O)N3C(C(=O)[O-])=C(CSc4nnc(-c5ccncc5)o4)CS[C@H]23)cs1.[Na+]`, the MIC in the test with Escherichia coli is ≤ 0.0063 mg/L; with Pseudomonas aeruginosa [1], 0.78 mg/L; in the test with Pseudomonas aeruginosa [2], 0.39 mg/L; against Staphylococcus aureus, 6.25 mg/L.
For the molecule `Nc1nc(/C(=N/OCCSc2nnc(-c3cc(O)c(O)cn3)o2)C(=O)N[C@@H]2C(=O)N3C(C(=O)[O-])=C(CSc4nnc(N)s4)CS[C@H]23)cs1.[Na+]`, the MIC is ≤ 0.0063 mg/L in the test on Escherichia coli, 0.2 mg/L against Pseudomonas aeruginosa [1], 0.2 mg/L against Pseudomonas aeruginosa [2] and 6.25 mg/L with Staphylococcus aureus. The ED50 in the test on Mus musculus [3] was 35 mg/kg; in the test with Mus musculus [4], > 20 mg/kg.
Turning to `Nc1nc(/C(=N/OCCSc2nnc(-c3cc(O)c(O)cn3)o2)C(=O)N[C@@H]2C(=O)N3C(C(=O)[O-])=C(CSc4ccccn4)CS[C@H]23)cs1.[Na+]`, the minimal inhibitory concentration (MIC) with Escherichia coli is ≤ 0.0063 mg/L; in the test with Pseudomonas aeruginosa [1], 0.39 mg/L; against Pseudomonas aeruginosa [2] it was 0.039 mg/L; with Staphylococcus aureus it was 6.25 mg/L.
Take `Nc1nc(/C(=N/OCCSc2nnc(-c3cc(O)c(O)cn3)o2)C(=O)N[C@@H]2C(=O)N3C(C(=O)[O-])=C(CSc4cnns4)CS[C@H]23)cs1.[Na+]`: the minimal inhibitory concentration (MIC) is ≤ 0.0063 mg/L against Escherichia coli, 0.78 mg/L in the test with Pseudomonas aeruginosa [1], 0.2 mg/L in the test on Pseudomonas aeruginosa [2] and 3.13 mg/L in the test with Staphylococcus aureus.
As to `CO/N=C(\C(=O)N[C@@H]1C(=O)N2C(C(=O)O)=C(COC(C)=O)CS[C@H]12)c1csc(N)n1` [CEFOTAXIME], the minimum inhibitory concentration (MIC) with Escherichia coli stood at 0.0125 mg/L (≈ 0.0274 µM); against Pseudomonas aeruginosa [1], 25 mg/L (≈ 54.9 µM); against Pseudomonas aeruginosa [2], 25 mg/L (≈ 54.9 µM); with Staphylococcus aureus, 1.56 mg/L (≈ 3.43 µM). In addition, the figures for the 50% effective dose (ED50) in the test on Mus musculus [5] and in the test on Mus musculus [4] were 3 mg/kg and 4.6 mg/kg, respectively.
As to `CO/N=C(\C(=O)N[C@@H]1C(=O)N2C(C(=O)[O-])=C(C[n+]3cccc4c3CCC4)CS[C@H]12)c1csc(N)n1` [CEFPIROME], in the test on Mus musculus [5], the ED50 was found to be 1.5 mg/kg.
In the case of `CC(C)(O/N=C(\C(=O)N[C@@H]1C(=O)N2C(C(=O)[O-])=C(C[n+]3ccccc3)CS[C@H]12)c1csc(N)n1)C(=O)O` [CEFTAZIDIME], the MIC against Escherichia coli turned out to be 0.05 mg/L (≈ 0.0915 µM); in the test on Pseudomonas aeruginosa [1], 1.56 mg/L (≈ 2.85 µM); against Pseudomonas aeruginosa [2], 3.13 mg/L (≈ 5.73 µM); against Staphylococcus aureus it was 3.13 mg/L (≈ 5.73 µM). The ED50 was 55 mg/kg in the test with Mus musculus [3], 8.1 mg/kg in the test on Mus musculus [4] and > 100 mg/kg in the test filed under Mus musculus [6].

(Values after ChEMBL document CHEMBL1153672, “Synthesis and biological activity of a novel class of cephalosporins with a oxadiazolyl hydroxypyridone moiety at C-7” (1995).)
